Assay results as given in ChEMBL document CHEMBL4251708, “Synthesis and Biological Screening of Pyrano[3,2-c]quinoline Analogues as Anti-inflammatory and Anticancer Agents” (ACS Med Chem Lett, 2018).
pIC50: −log10 of the molar value. Active and inactive are the calls of the source. The rule behind the calls is not given here.

Experiments:
[1] = test system: NCI-H460; test: Antiproliferative activity against human H460 cells after 48 hrs by propidium iodide staining based fluorometry; type: functional, cell-based; details: NCI-H460, 48 h
[2] = test system: THP-1; test: Antiinflammatory activity in PMA-differentiated human THP1 cells assessed as inhibition of LPS-induced IL-6 production at 1 uM after 24 hrs by ELISA relative to control; type: functional; details: THP-1, 24 h
[3] = test system: A-549 (Homo sapiens); test: Antiproliferative activity against human A-549 cells at 10 uM relative to control
[4] = test system: THP-1; test: Antiinflammatory activity in PMA-differentiated human THP1 cells assessed as inhibition of LPS-induced TNF-alpha production at 10 uM after 24 hrs by ELISA relative to control; type: functional; details: THP-1, 24 h
[5] = test system: MDA-MB-231 (Homo sapiens); test: Antiproliferative activity against human MDA-MB-231 cells at 10 uM relative to control
[6] = test system: HCT-116; test: Antiproliferative activity against human HCT116 cells after 48 hrs by propidium iodide staining based fluorometry; type: functional, cell-based; details: HCT-116, 48 h
[7] = test system: PBMC; test: Antiinflammatory activity in human PBMC assessed as inhibition of LPS-induced TNF-alpha production incubated for 30 mins followed by LPS addition measured after 4.5 hrs by ELISA; type: functional, cell-based
[8] = test system: THP-1; test: Antiinflammatory activity in PMA-differentiated human THP1 cells assessed as inhibition of LPS-induced TNF-alpha production after 24 hrs by ELISA; type: functional, cell-based; details: THP-1, 24 h
[9] = test system: MIA PaCa-2; test: Antiproliferative activity against human MIAPaCa2 cells at 10 uM relative to control; type: functional
[10] = test system: Calu-1; test: Antiproliferative activity against human Calu1 cells after 48 hrs by propidium iodide staining based fluorometry; type: functional, cell-based; details: Calu-1, 48 h
[11] = test system: THP-1; test: Antiinflammatory activity in PMA-differentiated human THP1 cells assessed as inhibition of LPS-induced IL-6 production after 24 hrs by ELISA; type: functional, cell-based; details: THP-1, 24 h
[12] = test system: THP-1; test: Antiinflammatory activity in PMA-differentiated human THP1 cells assessed as inhibition of LPS-induced TNF-alpha production at 1 uM after 24 hrs by ELISA relative to control; type: functional; details: THP-1, 24 h
[13] = test system: MIA PaCa-2 (Homo sapiens); test: Antiproliferative activity against human MIA PaCa-2 cells at 1 uM relative to control
[14] = test system: THP-1 (Homo sapiens); test: Antiinflammatory activity in human THP1 cells assessed as inhibition of IL-6 production at 10 uM relative to control; set-up: scale not given: the % may be the effect or the level left
[15] = test system: THP-1; test: Cytotoxicity against PMA-differentiated human THP1 cells assessed as reduction in cell viability after 4.5 hrs by MTS assay; type: cell-based; details: THP-1, 4.5 h
[16] = test system: THP-1; test: Antiinflammatory activity in PMA-differentiated human THP1 cells assessed as inhibition of LPS-induced IL-6 production at 10 uM after 24 hrs by ELISA relative to control; type: functional; details: THP-1, 24 h
[17] = test system: PANC-1; test: Antiproliferative activity against human PANC1 cells after 48 hrs by propidium iodide staining based fluorometry; type: functional, cell-based; details: PANC-1, 48 h
[18] = test system: MDA-MB-231 (Homo sapiens); test: Antiproliferative activity against human MDA-MB-231 cells at 1 uM relative to control; details: mda-mb-231, 1 µM
[19] = test system: THP-1 (Homo sapiens); test: Antiinflammatory activity in human THP1 cells assessed as inhibition of TNF-alpha production at 10 uM relative to control; set-up: scale not given: the % may be the effect or the level left
[20] = test system: ACHN (Homo sapiens); test: Antiproliferative activity against human ACHN cells at 1 uM relative to control
[21] = test system: ACHN; test: Antiproliferative activity against human ACHN cells after 48 hrs by propidium iodide staining based fluorometry; type: functional, cell-based
[22] = test system: ACHN (Homo sapiens); test: Antiproliferative activity against human ACHN cells at 10 uM relative to control
[23] = test system: ACHN; test: Antiproliferative activity against human ACHN cells at 10 uM relative to control; type: functional
[24] = test system: PANC-1; test: Antiproliferative activity against human PANC1 cells at 700 nM after 48 hrs by propidium iodide staining based fluorometry relative to control; type: functional
[25] = test system: HCT-116; test: Antiproliferative activity against human HCT116 cells at 700 nM after 48 hrs by propidium iodide staining based fluorometry relative to control; type: functional
[26] = test system: NCI-H460; test: Antiproliferative activity against human H460 cells at 700 nM after 48 hrs by propidium iodide staining based fluorometry relative to control; type: functional
[27] = test system: ACHN; test: Antiproliferative activity against human ACHN cells at 700 nM after 48 hrs by propidium iodide staining based fluorometry relative to control; type: functional
[28] = test system: Calu-1; test: Antiproliferative activity against human Calu1 cells at 700 nM after 48 hrs by propidium iodide staining based fluorometry relative to control; type: functional

Row | Compound | pIC50 [1] | inhibition at 1 µM [2] | Activity [3] | inhibition at 10 µM [4] | Activity [5] | pIC50 [6] | pIC50 [8] | Activity [9] | pIC50 [10] | pIC50 [11] | inhibition at 1 µM [12] | Activity [13] | Activity [14] | pIC50 [15] | inhibition at 10 µM [16] | pIC50 [17] | Activity [18] | Activity [19] | Activity [20] | Activity [22] | other results
1 | Cn1c(=O)c2c(c3ccccc31)OC(N)=C(C#N)C2c1cccc(Oc2ccccc2)c1 (stereo not given) | 5.85 | 0% | 67% | 0% | 51% | 5.29 | 6.70 | 72% | 5.74 | 6.70 | 18% | 66% | 52% | 4.96 | 70% | 5.33 | 47% | 34% | 69% | – | pIC50 [7]: 6.70; inhibition [7]: Dose-dependent effect; pIC50 [21]: 5.47
2 | Cn1c(=O)c2c(c3ccccc31)OC(N)=C(C#N)C2c1cccc([N+](=O)[O-])c1 (stereo not given) | 5.72 | 0% | 71% | 0% | 65% | 5.18 | 6.52 | 70% | 5.96 | 6.60 | 11% | 65% | 79% | < 5.00 | 79% | 5.60 | 53% | 43% | 79% | 83% | pIC50 [7]: 6.70; inhibition [7]: Dose-dependent effect; pIC50 [21]: 5.80
3 | Cn1c(=O)c2c(c3ccccc31)OC(N)=C(C#N)C2c1ccccc1 (stereo not given) | 5.89 | 0% | – | 0% | – | 6.00 | 5.31 | 41% | 5.92 | > 7.52 | 0% | 45% | 66% | < 5.00 | 66% | 5.82 | 0% | 0% | 61% | – | inhibition [7]: inactive; Activity [23]: 82%; pIC50 [21]: 5.55
4 | Cn1c(=O)c2c(c3ccccc31)OC(N)=C(C#N)C2c1ccc(F)cc1 (stereo not given) | – | 0% | 22% | 0% | – | – | – | 45% | – | – | 0% | 16% | 66% | – | 66% | – | 0% | 0% | 27% | 50% | –
5 | Cn1c(=O)c2c(c3ccccc31)OC(N)=C(C#N)C2c1cccc(Br)c1 (stereo not given) | 6.10 | 0% | 78% | 0% | 54% | 6.05 | 6.30 | 70% | 6.10 | 7.10 | 2% | 61% | 82% | 5.00 | 82% | 6.10 | 45% | 38% | 73% | 75% | pIC50 [7]: 6.30; pIC50 [21]: 6.05
6 | Cn1c(=O)c2c(c3ccccc31)OC(N)=C(C#N)C2c1ccccc1[N+](=O)[O-] (stereo not given) | – | 0% | 36% | 0% | – | – | – | 51% | – | – | 0% | 35% | 78% | – | 78% | – | 0% | 36% | 49% | 68% | –
7 | Cn1c(=O)c2c(c3ccccc31)OC(N)=C(C#N)C2c1ccc([N+](=O)[O-])cc1 (stereo not given) | – | 0% | 77% | 0% | – | – | – | 64% | – | – | 0% | 15% | 0% | – | 0% | – | 0% | 27% | 9% | 75% | –
8 | CN1CC[C@H](c2c(O)cc(O)c3c(=O)cc(-c4ccccc4Cl)oc23)[C@H](O)C1 [ALVOCIDIB] | – | – | – | – | – | – | – | – | – | – | – | – | – | – | – | – | – | – | – | – | Activity [24]: 78%; Activity [25]: 71%; Activity [26]: 88%; Activity [27]: 71%; Activity [28]: 74%
9 | Cn1c(=O)c2c(c3ccccc31)OC(N)=C(C#N)C2c1ccc(Cl)cc1 (stereo not given) | – | 0% | – | 0% | – | – | – | 63% | – | – | 0% | 21% | 75% | – | 75% | – | 0% | 42% | 45% | 69% | –
10 | COc1cccc(C2C(C#N)=C(N)Oc3c2c(=O)n(C)c2ccccc32)c1 (stereo not given) | – | 0% | – | 0% | 75% | – | – | 75% | – | – | 0% | 76% | – | – | 70% | – | 66% | 0% | 67% | 73% | –
